The record followed here is patent US11472791B2 (Incyte Corporation, priority 2019, dated 2022).

A word on the IC50: it is the concentration that gives 50% inhibition. Lower therefore signals higher potency.

Some results are limits rather than exact numbers.

The target in this assay is CDK2/Cyclin E1 (Homo sapiens (Human), UniProt P24941). The assay is described as follows: CDK2/Cyclin E1 HTRF enzyme activity assay. It counts as biochemical. As to conditions: 1 mM ATP. The method, then:
Assays are conducted in white 384-well polystyrene plates in a final reaction volume of 8 μL. […] HTRF signals are read after 1 hour at room temperature on a PHERAstar FS plate reader (BMG Labtech). Data is analyzed with IDBS XLFit and GraphPad Prism 5.0 software using a three or four parameter dose response curve to determine IC50 for each compound.
Consider `N#Cc1cccc(S(=O)(=O)N2CCC(Nc3ncc(C(F)(F)F)c(-c4cnn(C5CCOCC5)c4)n3)CC2)c1` [Example 7, 3-((4-((4-(1-(Tetrahydro-2H-pyran-4-yl)-1H-pyrazol-4-yl)-5-(trifluoromethyl)pyrimidin-2-yl)amino)piperidin-1-yl)sulfonyl)benzo nitrile], for which the IC50 is below 50 nM. As to `O=C(Nc1ccc(S(=O)(=O)N2CCC(Nc3ncc(C(F)(F)F)c(-c4cnn(C5CCOCC5)c4)n3)CC2)cc1)N1CCOCC1` [Example 8, N-(4-((4-((4-(1-(Tetrahydro-2H-pyran-4-yl)-1H-pyrazol-4-yl)-5-(trifluoromethyl)pyrimidin-2-yl)amino)piperidin-1-yl)sulfonyl)phenyl)morpholine-4-carboxamide], the IC50 was below 50 nM.

Regarding `Cn1cc(S(=O)(=O)N2CCC(Nc3ncc(C(F)(F)F)c(-c4cnn(C5CCOCC5)c4)n3)CC2)cn1` [Example 9, N-(1-((1-Methyl-1H-pyrazol-4-yl)sulfonyl)piperidin-4-yl)-4-(1-(tetrahydro-2H-pyran-4-yl)-1H-pyrazol-4-yl)-5-(trifluoromethyl)pyrimidin-2-amine], the IC50 is below 50 nM.

For the compound `CS(=O)(=O)N1CCC(Nc2ncc(C(F)(F)F)c(-c3cnn(C4CCCCC4)c3)n2)CC1` [Example 12, 4-(1-Cyclohexyl-1H-pyrazol-4-yl)-N-(1-(methylsulfonyl)piperidin-4-yl)-5-(trifluoromethyl)pyrimidin-2-amine], the IC50 was below 50 nM.

For `CS(=O)(=O)N1CCC(Nc2ncc(C(F)(F)F)c(-c3cnn(-c4ccccc4F)c3)n2)CC1` [Example 13, 4-(1-(2-Fluorophenyl)-1H-pyrazol-4-yl)-N-(1-(methylsulfonyl)piperidin-4-yl)-5-(trifluoromethyl)pyrimidin-2-amine], the IC50 is below 50 nM.

Compound `CS(=O)(=O)N1CCC(Nc2ncc(C(F)(F)F)c(-c3cnn(-c4ccccc4Cl)c3)n2)CC1` [Example 14, 4-(1-(2-Chlorophenyl)-1H-pyrazol-4-yl)-N-(1-(methylsulfonyl)piperidin-4-yl)-5-(trifluoromethyl)pyrimidin-2-amine] displayed an IC50 below 50 nM. Consider `Cc1nn(C2CCN(C)CC2)cc1-c1nc(NC2CCN(S(C)(=O)=O)CC2)ncc1F` [Example 15, 5-Fluoro-4-(3-methyl-1-(1-methylpiperidin-4-yl)-1H-pyrazol-4-yl)-N-(1-(methylsulfonyl)piperidin-4-yl)pyrimidin-2-amine], for which the IC50 fell in the range of 50 to 200 nM.

As to `Cc1nn(C2CCN(C)CC2)cc1-c1ccnc(NC2CCN(S(C)(=O)=O)CC2)n1` [Example 16, 4-(3-Methyl-1-(1-methylpiperidin-4-yl)-1H-pyrazol-4-yl)-N-(1-(methylsulfonyl)piperidin-4-yl)pyrimidin-2-amine], the IC50 was in the range of 50 to 200 nM. Under `CN1CCC(n2cc(-c3nc(NC4CCN(S(C)(=O)=O)CC4)ncc3F)c(C(F)(F)F)n2)CC1` [Example 17, 5-Fluoro-4-(1-(1-methylpiperidin-4-yl)-3-(trifluoromethyl)-1H-pyrazol-4-yl)-N-(1-(methylsulfonyl)piperidin-4-yl)pyrimidin-2-amine] stands below 50 nM; under `CN1CCC(n2ncc(-c3nc(NC4CCN(S(C)(=O)=O)CC4)ncc3C(F)(F)F)c2C(F)(F)F)CC1` [Example 18, 4-(1-(1-Methylpiperidin-4-yl)-5-(trifluoromethyl)-1H-pyrazol-4-yl)-N-(1-(methylsulfonyl)piperidin-4-yl)-5-(trifluoromethyl)pyrimidin-2-amine], 50 to 200 nM. Consider `CS(=O)(=O)N1CC(Nc2ncc(C(F)(F)F)c(-c3cnn(C4CCOCC4)c3)n2)C1` [Example 20, N-(1-(Methylsulfonyl)azetidin-3-yl)-4-(1-(tetrahydro-2H-pyran-4-yl)-1H-pyrazol-4-yl)-5-(trifluoromethyl)pyrimidin-2-amine], for which the IC50 fell in the range of 500 to 1000 nM. As for `CS(=O)(=O)N1CCC(Nc2ncc(Cl)c(-c3cnn(C4CCOCC4)c3)n2)CC1` [Example 22, 5-Chloro-N-(1-(methylsulfonyl)piperidin-4-yl)-4-(1-(tetrahydro-2H-pyran-4-yl)-1H-pyrazol-4-yl)pyrimidin-2-amine], the IC50 is below 50 nM.

Regarding `Cn1cnc(S(=O)(=O)N2CCC(Nc3ncc(C(F)(F)F)c(-c4cnn(C5CCOCC5)c4)n3)CC2)c1` [Example 23, N-(1-((1-Methyl-1H-imidazol-4-yl)sulfonyl)piperidin-4-yl)-4-(1-(tetrahydro-2H-pyran-4-yl)-1H-pyrazol-4-yl)-5-(trifluoromethyl)pyrimidin-2-amine], the IC50 was below 50 nM.

Take `CCn1cnc(S(=O)(=O)N2CCC(Nc3ncc(C(F)(F)F)c(-c4cnn(C5CCOCC5)c4)n3)CC2)c1` [Example 24, N-(1-((1-Ethyl-1H-imidazol-4-yl)sulfonyl)piperidin-4-yl)-4-(1-(tetrahydro-2H-pyran-4-yl)-1H-pyrazol-4-yl)-5-(trifluoromethyl)pyrimidin-2-amine]: the IC50 is below 50 nM. The result for `Cn1cnc(S(=O)(=O)N2CCC(Nc3ncc(C(F)(F)F)c(-c4cnn(CC(F)(F)F)c4)n3)CC2)c1` [Example 25, N-(1-((1-Methyl-1H-imidazol-4-yl)sulfonyl)piperidin-4-yl)-4-(1-(2,2,2-trifluoroethyl)-1H-pyrazol-4-yl)-5-(trifluoromethyl)pyrimidin-2-amine] reads below 50 nM; that for `Cn1cnc(S(=O)(=O)N2CCC(Nc3ncc(C(F)(F)F)c(-c4cnn([C@H]5CC[C@H](O)CC5)c4)n3)CC2)c1` [Example 26, trans-4-(4-(2-((1-((1-Methyl-1H-imidazol-4-yl)sulfonyl)piperidin-4-yl)amino)-5-(trifluoromethyl)pyrimidin-4-yl)-1H-pyrazol-1-yl)cyclohexan-1-ol], below 50 nM; that for `Cc1nc(C(=O)N[C@]2(C)C[C@H](O)C2)ccc1-n1cc(-c2nc(NC3CCN(S(C)(=O)=O)CC3)ncc2C(F)(F)F)cn1` [Example 28, N-(cis-3-Hydroxy-1-methylcyclobutyl)-6-methyl-5-(4-(2-(1-(methylsulfonyl)piperidin-4-ylamino)-5-(trifluoromethyl)pyrimidin-4-yl)-1H-pyrazol-1-yl)picolinamide], below 50 nM. The result for `CNCc1ccc(-n2cc(-c3nc(NC4CCN(S(C)(=O)=O)CC4)ncc3C(F)(F)F)cn2)c(Cl)c1` [Example 29, 4-(1-(2-Chloro-4-((methylamino)methyl)phenyl)-1H-pyrazol-4-yl)-V-(1-(methylsulfonyl)piperidin-4-yl)-5-(trifluoromethyl)pyrimidin-2-amine] reads below 50 nM; that for `CC(C)(C(N)=O)n1cc(-c2nc(NC3CCN(S(C)(=O)=O)CC3)ncc2C(F)(F)F)cn1` [Example 30, 2-Methyl-2-(4-(2-((1-(methylsulfonyl)piperidin-4-yl)amino)-5-(trifluoromethyl)pyrimidin-4-yl)-1H-pyrazol-1-yl)propanamide], below 50 nM; that for `Cn1cnc(S(=O)(=O)N2CCC(Nc3ncc(C(F)(F)F)c(-c4cnn(CC(F)F)c4)n3)CC2)c1` [Example 31, 4-(1-(2,2-Difluoroethyl)-1H-pyrazol-4-yl)-N-(1-((1-methyl-1H-imidazol-4-yl)sulfonyl)piperidin-4-yl)-5-(trifluoromethyl)pyrimidin-2-amine], below 50 nM. Compound `Cn1cnc(S(=O)(=O)N2CCC(Nc3ncc(C(F)(F)F)c(-c4cnn(CC5CC5)c4)n3)CC2)c1` [Example 32, 4-(1-(Cyclopropylmethyl)-1H-pyrazol-4-yl)-N-(1-((1-methyl-1H-imidazol-4-yl)sulfonyl)piperidin-4-yl)-5-(trifluoromethyl)pyrimidin-2-amine] registered an IC50 below 50 nM. Under `Cn1cnc(S(=O)(=O)N2CCC(Nc3ncc(C(F)(F)F)c(-c4cnn(C[C@H]5CCOC5)c4)n3)CC2)c1` [Example 33, (R)—N-(1-((1-Methyl-1H-imidazol-4-yl)sulfonyl)piperidin-4-yl)-4-(1-((tetrahydrofuran-3-yl)methyl)-1H-pyrazol-4-yl)-5-(trifluoromethyl)pyrimidin-2-amine] stands below 50 nM; under `CS(=O)(=O)N1CCC(Nc2ncc(C(F)(F)F)c(-c3cnn([C@H]4CC[C@H](C#N)CC4)c3)n2)CC1` [Example 34, trans-4-(4-(2-((1-(Methylsulfonyl)piperidin-4-yl)amino)-5-(trifluoromethyl)pyrimidin-4-yl)-1H-pyrazol-1-yl)cyclohexane-1-carbonitrile], below 50 nM. In turn, `Cc1c(-n2cc(-c3nc(NC4CCN(S(=O)(=O)c5cn(C)cn5)CC4)ncc3C(F)(F)F)cn2)ccnc1N` [Example 35, 4-(1-(2-Amino-3-methylpyridin-4-yl)-1H-pyrazol-4-yl)-N-(1-((1-methyl-1H-imidazol-4-yl)sulfonyl)piperidin-4-yl)-5-(trifluoromethyl)pyrimidin-2-amine] gave an IC50 below 50 nM. Consider `Cn1cnc(S(=O)(=O)N2CCC(Nc3ncc(C(F)(F)F)c(-c4cnn(-c5ccnc(N)c5Cl)c4)n3)CC2)c1` [Example 36, 4-(1-(2-Amino-3-chloropyridin-4-yl)-1H-pyrazol-4-yl)-N-(1-((1-methyl-1H-imidazol-4-yl)sulfonyl)piperidin-4-yl)-5-(trifluoromethyl)pyrimidin-2-amine], for which the IC50 is below 50 nM. Compound `CS(=O)(=O)N1CCC(Nc2ncc(C(F)(F)F)c(-c3cnn(-c4cc(N)ncc4C(F)(F)F)c3)n2)CC1` [Example 37, 4-(1-(2-Amino-5-(trifluoromethyl)pyridin-4-yl)-1H-pyrazol-4-yl)-N-(1-(methylsulfonyl)piperidin-4-yl)-5-(trifluoromethyl)pyrimidin-2-amine] came in with an IC50 below 50 nM. Under `Cn1cnc(S(=O)(=O)N2CCC(Nc3ncc(C#N)c(-c4cnn(CC(F)(F)F)c4)n3)CC2)c1` [Example 38, 2-((1-((1-Methyl-1H-imidazol-4-yl)sulfonyl)piperidin-4-yl)amino)-4-(1-(2,2,2-trifluoroethyl)-1H-pyrazol-4-yl)pyrimidine-5-carbonitrile] stands below 50 nM.
